{"source": "ChEMBL document CHEMBL6127088", "about": "“Novel 2-aminothiazole analogues both as polymyxin E synergist and antimicrobial agent against multidrug-resistant Gram-positive bacteria” (2024)", "key": {"Acinetobacter baumannii [1]": {"system": "Acinetobacter baumannii", "experiment": "Antimicrobial activity against Acinetobacter baumannii ATCC 19606 incubated for 18 hrs by broth microdilution method", "format": "functional"}, "Acinetobacter baumannii [2]": {"system": "Acinetobacter baumannii", "experiment": "Antibacterial activity against Acinetobacter baumannii ATCC 19606 infected in female Balb/c mouse model assessed as increase in animal survival at 64 mg/kg, iv administered every 12 hrs and measured for 7 days", "format": "functional, organism-based"}, "Acinetobacter baumannii [3]": {"system": "Acinetobacter baumannii", "experiment": "Synergistic antibacterial activity against Acinetobacter baumannii ATCC 19606 assessed as fold change in polymyxin-E MIC at 2 microg/ml incubated for 18 hrs by broth microdilution method relative to polymyxin-E alone", "format": "functional", "conditions": "dose 2 µg/ml"}, "Bacillus subtilis [4]": {"system": "Bacillus subtilis", "experiment": "Antimicrobial activity against Bacillus subtilis ATCC 20678 incubated for 18 hrs by broth microdilution method", "format": "functional"}, "Acinetobacter baumannii [5]": {"system": "Acinetobacter baumannii", "experiment": "Synergistic antibacterial activity against Acinetobacter baumannii ATCC 19606 assessed as fold change in polymyxin-E MIC at 16 microg/ml incubated for 18 hrs by broth microdilution method relative to polymyxin-E alone", "format": "functional", "conditions": "dose 16 µg/ml"}, "Enterococcus faecalis [6]": {"system": "Enterococcus faecalis", "experiment": "Antimicrobial activity against vancomycin-resistant Enterococcus faecalis ATCC 51299 assessed as minimum inhibitory concentration incubated for 18 hrs by broth microdilution method", "format": "functional"}, "Acinetobacter baumannii [7]": {"system": "Acinetobacter baumannii", "experiment": "Synergistic antimicrobial activity against Acinetobacter baumannii ATCC 19606 assessed as fractional inhibitory concentration index in presence of polymyxin E incubated for 18 to 20 hrs by chequerboard assay", "format": "functional", "conditions": "time 18-20 hrs"}, "Staphylococcus aureus": {"system": "Staphylococcus aureus", "experiment": "Antimicrobial activity against methicillin/ofloxacin-resistant Staphylococcus aureus ATCC 43300 assessed as minimum inhibitory concentration incubated for 18 hrs by broth microdilution method", "format": "functional"}, "Acinetobacter baumannii [8]": {"system": "Acinetobacter baumannii", "experiment": "Synergistic antibacterial activity against Acinetobacter baumannii ATCC 19606 infected in female Balb/c mouse model assessed as increase in animal survival at 64 mg/kg, iv administered every 12 hrs in presence of 0.5 mg/kg polymyxin-E and measured for 7 days", "format": "functional, organism-based"}, "Enterococcus faecalis [9]": {"system": "Enterococcus faecalis", "experiment": "Antibacterial activity against Enterococcus faecalis ATCC 51299 assessed as inhibition of bacterial growth incubated for 18 hrs by broth microdilution method", "format": "functional"}, "Bacillus subtilis [10]": {"system": "Bacillus subtilis", "experiment": "Antibacterial activity against Bacillus subtilis 168 assessed as inhibition of bacterial growth incubated for 18 hrs by broth microdilution method", "format": "functional"}, "[11]": {"system": "Lactiplantibacillus plantarum", "experiment": "Antibacterial activity against Lactobacillus plantarum assessed as inhibition of bacterial growth incubated for 18 hrs by broth microdilution method", "format": "functional"}, "Listeria monocytogenes": {"system": "Listeria monocytogenes", "experiment": "Antibacterial activity against Listeria monocytogenes assessed as inhibition of bacterial growth incubated for 18 hrs by broth microdilution method", "format": "functional"}, "Bacillus subtilis [12]": {"system": "Bacillus subtilis", "experiment": "Antibacterial activity against Bacillus subtilis CMCC(B) 63501 assessed as inhibition of bacterial growth incubated for 18 hrs by broth microdilution method", "format": "functional"}, "[13]": {"system": "Mycolicibacterium smegmatis", "experiment": "Antibacterial activity against Mycobacterium smegmatis ARC 700044 assessed as inhibition of bacterial growth incubated for 18 hrs by broth microdilution method", "format": "functional"}, "Enterococcus faecalis [14]": {"system": "Enterococcus faecalis", "experiment": "Antibacterial activity against Enterococcus faecalis ATCC 29212 assessed as inhibition of bacterial growth incubated for 18 hrs by broth microdilution method", "format": "functional"}, "[15]": {"system": "Mycolicibacterium smegmatis", "experiment": "Antibacterial activity against Mycobacterium smegmatis ATCC 704 assessed as inhibition of bacterial growth incubated for 18 hrs by broth microdilution method", "format": "functional"}, "[16]": {"system": "Mycolicibacterium smegmatis", "experiment": "Antibacterial activity against Mycobacterium smegmatis MC 2155 assessed as inhibition of bacterial growth incubated for 18 hrs by broth microdilution method", "format": "functional"}, "[17]": {"system": "Lacticaseibacillus rhamnosus", "experiment": "Antibacterial activity against Lactobacillus rhamnosus assessed as inhibition of bacterial growth incubated for 18 hrs by broth microdilution method", "format": "functional"}, "Bacillus subtilis [18]": {"system": "Bacillus subtilis", "experiment": "Antibacterial activity against Bacillus subtilis ATCC 6633 assessed as inhibition of bacterial growth incubated for 18 hrs by broth microdilution method", "format": "functional"}}, "note": "Activity calls are given as the source filed them. The calls are words filed in the database; no cut-off is given here.", "data": [{"smiles": "Fc1ccc(-c2csc(Nc3ccc(C(F)(F)F)cc3)n2)c(F)c1", "values": [{"measurement": "MIC", "setting": "Acinetobacter baumannii [1]", "result": "> 256", "unit": "µg/mL"}, {"measurement": "Activity", "setting": "Acinetobacter baumannii [2]", "result": "inactive"}, {"measurement": "fold change (FC)", "setting": "Acinetobacter baumannii [3]", "result": 8}, {"measurement": "MIC", "setting": "Bacillus subtilis [4]", "result": 4, "unit": "µg/mL"}, {"measurement": "fold change (FC)", "setting": "Acinetobacter baumannii [5]", "result": 16}, {"measurement": "MIC", "setting": "Enterococcus faecalis [6]", "result": 4, "unit": "µg/mL"}, {"measurement": "fractional inhibitory concentration index (FICI)", "setting": "Acinetobacter baumannii [7]", "result": 0.14}, {"measurement": "MIC", "setting": "Staphylococcus aureus", "result": 4, "unit": "µg/mL"}, {"measurement": "Activity", "setting": "Acinetobacter baumannii [8]", "result": "inactive"}]}, {"smiles": "CN[C@H](CC(C)C)C(=O)N[C@H]1C(=O)N[C@@H](CC(N)=O)C(=O)N[C@H]2C(=O)N[C@H]3C(=O)N[C@H](C(=O)N[C@H](C(=O)O)c4cc(O)cc(O)c4-c4cc3ccc4O)[C@H](O)c3ccc(c(Cl)c3)Oc3cc2cc(c3O[C@@H]2O[C@H](CO)[C@@H](O)[C@H](O)[C@H]2O[C@H]2C[C@](C)(N)[C@H](O)[C@H](C)O2)Oc2ccc(cc2Cl)[C@H]1O", "note": "[VANCOMYCIN]", "values": [{"measurement": "MIC", "setting": "Enterococcus faecalis [9]", "result": 2, "unit": "µg/mL"}, {"measurement": "MIC", "setting": "Bacillus subtilis [4]", "result": 1, "unit": "µg/mL"}, {"measurement": "MIC", "setting": "Bacillus subtilis [10]", "result": 1, "unit": "µg/mL"}, {"measurement": "MIC", "setting": "[11]", "result": 0.5, "unit": "µg/mL"}, {"measurement": "MIC", "setting": "Listeria monocytogenes", "result": 2, "unit": "µg/mL"}, {"measurement": "MIC", "setting": "Enterococcus faecalis [6]", "result": "> 256", "unit": "µg/mL"}, {"measurement": "MIC", "setting": "Bacillus subtilis [12]", "result": 2, "unit": "µg/mL"}, {"measurement": "MIC", "setting": "[13]", "result": 2, "unit": "µg/mL"}, {"measurement": "MIC", "setting": "Enterococcus faecalis [14]", "result": 2, "unit": "µg/mL"}, {"measurement": "MIC", "setting": "[15]", "result": 1, "unit": "µg/mL"}, {"measurement": "MIC", "setting": "[16]", "result": 2, "unit": "µg/mL"}, {"measurement": "MIC", "setting": "[17]", "result": 1, "unit": "µg/mL"}, {"measurement": "MIC", "setting": "Bacillus subtilis [18]", "result": 1, "unit": "µg/mL"}]}, {"smiles": "Cn1cc(-c2csc(Nc3cc(F)cc(C(F)(F)F)c3)n2)cn1", "values": [{"measurement": "MIC", "setting": "Acinetobacter baumannii [1]", "result": "> 256", "unit": "µg/mL"}, {"measurement": "MIC", "setting": "Bacillus subtilis [4]", "result": 256, "unit": "µg/mL"}, {"measurement": "MIC", "setting": "Enterococcus faecalis [6]", "result": 256, "unit": "µg/mL"}, {"measurement": "fractional inhibitory concentration index (FICI)", "setting": "Acinetobacter baumannii [7]", "result": 0.281}, {"measurement": "MIC", "setting": "Staphylococcus aureus", "result": 256, "unit": "µg/mL"}]}, {"smiles": "Cc1ccc(C(F)(F)F)cc1Nc1nc(-c2ccc(F)cc2F)cs1", "values": [{"measurement": "MIC", "setting": "Acinetobacter baumannii [1]", "result": "> 256", "unit": "µg/mL"}, {"measurement": "MIC", "setting": "Bacillus subtilis [4]", "result": 2, "unit": "µg/mL"}, {"measurement": "MIC", "setting": "Enterococcus faecalis [6]", "result": 256, "unit": "µg/mL"}, {"measurement": "fractional inhibitory concentration index (FICI)", "setting": "Acinetobacter baumannii [7]", "result": 0.093}, {"measurement": "MIC", "setting": "Staphylococcus aureus", "result": 256, "unit": "µg/mL"}]}, {"smiles": "Fc1cc(Nc2nc(C3CC3)cs2)cc(C(F)(F)F)c1", "values": [{"measurement": "MIC", "setting": "Acinetobacter baumannii [1]", "result": "> 256", "unit": "µg/mL"}, {"measurement": "MIC", "setting": "Bacillus subtilis [4]", "result": 16, "unit": "µg/mL"}, {"measurement": "MIC", "setting": "Enterococcus faecalis [6]", "result": 8, "unit": "µg/mL"}, {"measurement": "fractional inhibitory concentration index (FICI)", "setting": "Acinetobacter baumannii [7]", "result": 0.187}, {"measurement": "MIC", "setting": "Staphylococcus aureus", "result": 32, "unit": "µg/mL"}]}, {"smiles": "C/C(=N\\Nc1ccc(Cl)nn1)c1csc(Nc2cc(F)cc(C(F)(F)F)c2)n1", "values": [{"measurement": "MIC", "setting": "Acinetobacter baumannii [1]", "result": "> 256", "unit": "µg/mL"}, {"measurement": "MIC", "setting": "Bacillus subtilis [4]", "result": 256, "unit": "µg/mL"}, {"measurement": "MIC", "setting": "Enterococcus faecalis [6]", "result": 256, "unit": "µg/mL"}, {"measurement": "fractional inhibitory concentration index (FICI)", "setting": "Acinetobacter baumannii [7]", "result": 0.75}, {"measurement": "MIC", "setting": "Staphylococcus aureus", "result": 64, "unit": "µg/mL"}]}, {"smiles": "Oc1cc(Nc2nc(-c3ccc(F)cc3F)cs2)cc(C(F)(F)F)c1", "values": [{"measurement": "MIC", "setting": "Acinetobacter baumannii [1]", "result": "> 256", "unit": "µg/mL"}, {"measurement": "MIC", "setting": "Bacillus subtilis [4]", "result": 0.5, "unit": "µg/mL"}, {"measurement": "MIC", "setting": "Enterococcus faecalis [6]", "result": 256, "unit": "µg/mL"}, {"measurement": "fractional inhibitory concentration index (FICI)", "setting": "Acinetobacter baumannii [7]", "result": 0.25}, {"measurement": "MIC", "setting": "Staphylococcus aureus", "result": 1, "unit": "µg/mL"}]}]}
